Data: patent US6355799B1, “Substituted benzene compounds, process for their preparation, and herbicidal and defoliant compositions containing them” (ISK Americas Incorporated, priority 1997, dated 2002)

Columns and labels:
Format in all cases: in vivo
[1] = system: redroot pigweed (Amaranthus retroflexus, AMARE); experiment: Pre-emerge test, greenhouse herbicide activity screening; conditions: phytotoxicity rating 0-100, 14 days after application
Method in brief: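 Compounds in acetone were track-sprayed at 15-1000 g ai/ha (187 l/ha) on sandy loam pots: pre-emerge one day after seeding, post-emerge at 2-3 leaf stage with 0.25% v/v non-ionic surfactant. Phytotoxicity was rated 14 days later on a 0 (no damage) to 100 (complete death) scale.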

[2] = system: velvetleaf (Abutilon theophrasti, ABUTH); experiment: Post-emerge test, greenhouse herbicide activity screening; conditions: post-emerge, 14 days after application, rating scale 0-100
Method in brief: (§1)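 Compounds in acetone were track-sprayed at 187 l/ha, 15–1000 g ai/ha, onto sandy loam pots. Pre-emerge seeds were sown one day before spraying, with surface watering afterwards. Post-emerge plants were at the 2–3 leaf stage and sprayed with 0.25% v/v non-ionic surfactant. Injury was rated 0–100 at 14 days.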

[3] = system: redroot pigweed (Amaranthus retroflexus, AMARE); experiment: as above; conditions: post-emerge, 14 days after application
Method in brief: as §1

[4] = system: large crabgrass (Digitaria sanguinalis, DIGSA); experiment: as above; conditions: post-emerge, 14 days after application, rating scale 0-100
Method in brief: as §1

[5] = system: barnyardgrass (Echinochloa crus-galli, ECHCG); experiment: as above; conditions: post-emerge, 14 days after application, rating scale 0-100
Method in brief: as §1

[6] = system: johnsongrass (Sorghum halepense, SORHA); experiment: as above; conditions: post-emerge, 14 days after application, rating scale 0-100
Method in brief: as §1

[7] = system: sicklepod (Cassia obtusifolia, CASOB); experiment: as above; conditions: post-emerge, 14 days after application, rating scale 0-100
Method in brief: as §1

[8] = system: green foxtail (Setaria viridis, SETVI); experiment: as above; conditions: post-emerge, 14 days after application, rating scale 0-100
Method in brief: as §1

[9] = system: lambsquarters (Chenopodium album, CHEAL); experiment: as above; conditions: post-emerge, 14 days after application, rating scale 0-100
Method in brief: as §1

[10] = system: ivyleaf morningglory (Ipomoea hederacea, IPOHE); experiment: as above; conditions: post-emerge, 14 days after application, rating scale 0-100
Method in brief: as §1

[11] = system: field corn (Zea mays L., var. Dekalb 535, CORN); experiment: Post-emerge test, crop safety; conditions: post-emerge, 14 days after application, rating scale 0-100
Method in brief: (§2)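 Herbicidal damage is scored 0 (none) to 100 (complete plant death) two weeks after a simulated field spray. Rates span 15–1000 g ai/ha, delivered in acetone at 187 l/ha. For post-emergence treatments, plants have 2–3 leaves and the spray carries 0.25% v/v non-ionic surfactant.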

[12] = system: upland rice (Oryza sp., var. Tebonnet, RICE); experiment: Post-emerge test, crop safety; conditions: post-emerge, 14 days after application, rating scale 0-100
Method in brief: as §2

[13] = system: velvetleaf (Abutilon theophrasti, ABUTH); experiment: Pre-emerge test, greenhouse herbicide activity screening; conditions: phytotoxicity rating 0-100, 14 days after application
Method in brief: as §2

[14] = system: large crabgrass (Digitaria sanguinalis, DIGSA); experiment: as above; conditions: phytotoxicity rating 0-100, 14 days after application
Method in brief: as §2

[15] = system: barnyardgrass (Echinochloa crus-galli, ECHCG); experiment: as above; conditions: phytotoxicity rating 0-100, 14 days after application
Method in brief: as §2

[16] = system: johnsongrass (Sorghum halepense, SORHA); experiment: as above; conditions: phytotoxicity rating 0-100, 14 days after application
Method in brief: as §2

[17] = system: sicklepod (Cassia obtusifolia, CASOB); experiment: as above; conditions: phytotoxicity rating 0-100, 14 days after application
Method in brief: as §2

[18] = system: green foxtail (Setaria viridis, SETVI); experiment: as above; conditions: phytotoxicity rating 0-100, 14 days after application
Method in brief: as §2

[19] = system: lambsquarters (Chenopodium album, CHEAL); experiment: as above; conditions: phytotoxicity rating 0-100, 14 days after application
Method in brief: as §2

[20] = system: ivyleaf morningglory (Ipomoea hederacea, IPOHE); experiment: as above; conditions: phytotoxicity rating 0-100, 14 days after application
Method in brief: as §2

[21] = system: field corn (Zea mays L., var. Dekalb 535, CORN); experiment: Pre-emerge test, crop safety; conditions: crop damage rating 0-100, 14 days after application
Method in brief: (§3)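 Visual ratings on a 0-100 scale (0 no damage, 100 all plants dead) were taken at 14 days after treatment. Rates of 15-1000 g ai/ha in acetone, 187 l/ha, were sprayed onto soil one day after planting (pre-emerge) or onto 2-3 leaf plants with 0.25% v/v surfactant (post-emerge).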

[22] = system: upland rice (Oryza sp., var. Tebonnet, RICE); experiment: Pre-emerge test, crop safety; conditions: crop damage rating 0-100, 14 days after application
Method in brief: as §3

Which results are given for `COc1c(Cl)cc(F)c(-n2c(=O)cc(C(F)(F)F)n(C)c2=O)c1NC(=O)OCc1ccc(Cl)c(Cl)c1` [4-32]?
Pre-emerge Herbicidal Activity AMARE ([1]; 63 g ai/ha): 50; Pre-emerge Herbicidal Activity AMARE ([1]; 250 g ai/ha): 100; phytotoxicity rating ABUTH ([2]; 63 g ai/ha): 90; phytotoxicity rating ABUTH ([2]; 250 g ai/ha): 100; phytotoxicity rating AMARE ([3]; 63 g ai/ha, rating scale 0-100 (0 no damage, 100 complete death)): 100; phytotoxicity rating AMARE ([3]; 250 g ai/ha, rating scale 0-100): 100; phytotoxicity rating DIGSA ([4]; 63 g ai/ha): 10; phytotoxicity rating DIGSA ([4]; 250 g ai/ha): 20; phytotoxicity rating ECHCG ([5]; 63 g ai/ha): 0; phytotoxicity rating ECHCG ([5]; 250 g ai/ha): 20; phytotoxicity rating SORHA ([6]; 63 g ai/ha): 10; phytotoxicity rating SORHA ([6]; 250 g ai/ha): 30; phytotoxicity rating CASOB ([7]; 63 g ai/ha): 80; phytotoxicity rating CASOB ([7]; 250 g ai/ha): 80; phytotoxicity rating SETVI ([8]; 63 g ai/ha): 30; phytotoxicity rating SETVI ([8]; 250 g ai/ha): 50; phytotoxicity rating CHEAL ([9]; 63 g ai/ha): 100; phytotoxicity rating CHEAL ([9]; 250 g ai/ha): 100; phytotoxicity rating IPOHE ([10]; 63 g ai/ha): 100; phytotoxicity rating IPOHE ([10]; 250 g ai/ha): 100; phytotoxicity rating CORN (crop damage) ([11]; 63 g ai/ha): 20; phytotoxicity rating CORN (crop damage) ([11]; 250 g ai/ha): 30; phytotoxicity rating RICE (crop damage) ([12]; 63 g ai/ha): 20; phytotoxicity rating RICE (crop damage) ([12]; 250 g ai/ha): 40; Pre-emerge Herbicidal Activity ABUTH ([13]; 63 g ai/ha): 0; Pre-emerge Herbicidal Activity ABUTH ([13]; 250 g ai/ha): 70; Pre-emerge Herbicidal Activity DIGSA ([14]; 63 g ai/ha): 20; Pre-emerge Herbicidal Activity DIGSA ([14]; 250 g ai/ha): 80; Pre-emerge Herbicidal Activity ECHCG ([15]; 63 g ai/ha): 0; Pre-emerge Herbicidal Activity ECHCG ([15]; 250 g ai/ha): 50; Pre-emerge Herbicidal Activity SORHA ([16]; 63 g ai/ha): 0; Pre-emerge Herbicidal Activity SORHA ([16]; 250 g ai/ha): 30; Pre-emerge Herbicidal Activity CASOB ([17]; 63 g ai/ha): 0; Pre-emerge Herbicidal Activity CASOB ([17]; 250 g ai/ha): 30; Pre-emerge Herbicidal Activity SETVI ([18]; 63 g ai/ha): 30; Pre-emerge Herbicidal Activity SETVI ([18]; 250 g ai/ha): 95; Pre-emerge Herbicidal Activity CHEAL ([19]; 63 g ai/ha): 80; Pre-emerge Herbicidal Activity CHEAL ([19]; 250 g ai/ha): 100; Pre-emerge Herbicidal Activity IPOHE ([20]; 63 g ai/ha): 0; Pre-emerge Herbicidal Activity IPOHE ([20]; 250 g ai/ha): 40; Pre-emerge Herbicidal Activity CORN ([21]; 63 g ai/ha): 0; Pre-emerge Herbicidal Activity CORN ([21]; 250 g ai/ha): 10; Pre-emerge Herbicidal Activity RICE ([22]; 63 g ai/ha): 0; Pre-emerge Herbicidal Activity RICE ([22]; 250 g ai/ha): 30
